Measurements taken from US7015228B2, “4-amino-2-(2-pyridyl)pyrimidines as microbicidal active substances” (Ciba Specialty Chemicals Corporation, priority 2001, dated 2006).

Columns and labels:
Assay in all cases: Determination of the bactericidal activity (logarithmic reduction in organism count)
Conditions in all cases: contact for 30 minutes at a substance concentration of 120 μg/mL
[1] = tested on: S. choleraesuis ATCC 10708; assay type: cell-based, Salmonella choleraesuis
Experimental: (§1) Determination of the Bactericidal Activity of Selected Compounds
(§2) Casein-soybean flour-peptone broth for preparation of pre-cultures of test bacteria
(§3) Examples of Test Organisms:
(§4) • Staphylococcus aureus ATCC 6538 • Escherichia coli ATCC 10536 • Salmonella choleraesuis ATCC 10708 Procedure:
(§5) The test substances are dissolved in dimethyl sulfoxide (DMSO) and tested in a concentration of 120 μg/ml.
(§6) Bacteria are incubated overnight in CASO broth and adjusted to an organism count of 1–5×10^5 CFU/ml using 0.85% sodium chloride solution.
(§7) The test substances are pre-pipetted into microtitre plates in amounts of 8 μl per well.
(§8) The adjusted test organism suspensions are added in amounts of 192 μl per well to the test substances and mixed. After defined contact times, the test batches are mixed, an aliquot is withdrawn and diluted in several steps in a dilution series of 1:10 in a suitable inactivation medium.
The test plates are incubated for 24 hours at 37° C. […]
(§9) One microtitre plate is used for each test organism.
(§10) All the substances are tested in duplicate.

[2] = tested on: E. coli NCTC 8196; assay type: cell-based, Escherichia coli
[3] = tested on: S. aureus ATCC 6538; assay type: cell-based, Staphylococcus aureus
Experimental: as §1, §2, §3, §4, §5, §6, §7, §8
The test plates are incubated for 24 hours at 37° C.
After incubation, the growth is determined on the basis of the turbidity of the test batches (optical density) at 620 nm in a microplate reader.
as §9, §10

Structure (SMILES) | Logarithmic reduction in organism count, S. choleraesuis ATCC 10708 [1] | Logarithmic reduction in organism count, E. coli NCTC 8196 [2] | Logarithmic reduction in organism count, S. aureus ATCC 6538 [3]
CCCCCCCCCCNc1cc(C(F)(F)F)nc(-c2ccccn2)n1 [Compound of formula 35] | <1 log | <1 log | <1 log
CCCCCCCCCNc1cc(C(F)(F)F)nc(-c2ccccn2)n1 [Compound of formula 34] | <1 log | <1 log | <1 log
CCCCCCCCCCCNc1cc(C)nc(-c2ccccn2)n1 [Compound of formula 92] | ≦1 log | <1 log | >3 log
CCCCCCCCCCCCCCCNc1cc(C(C)C)nc(-c2ccccn2)n1 [Compound of formula 99] | <1 log | ≦1 log | 2 log
CCCCCCCCCCCCCCCCNc1cc(C(F)(F)F)nc(-c2ccccn2)n1 [Compound of formula 37] | <1 log | <1 log | 1–2 log
CC(C)c1cc(NCCCCCCCCCN)nc(-c2ccccn2)n1 [Compound of formula 42] | <1 log | ≦1 log | 2 log
CCCCCCCCCCCNc1nc(-c2ccccn2)nc(C)c1CC [Compound of formula 89] | ≦1 log | ≦1 log | 2 log
CCCCCCCCCCNc1nc(-c2ccccn2)nc(C)c1C(C)C [Compound of formula 71] | <1 log | <1 log | 2 log
Cc1cc(NCCCCCCCCCN)nc(-c2ccccn2)n1 [Compound of formula 18] | <1 log | <1 log | 1 log
CC(C)(C)c1cc(NCCCCCCCCCN)nc(-c2ccccn2)n1 [Compound of formula 54] | ≦1 log | ≦1 log | 2–3 log
CCCCCCCCNc1cc(C(C)C)nc(-c2ccccn2)n1 [Compound of formula 45] | <1 log | <1 log | 1–2 log
CCCCCCCCNc1nc(-c2ccccn2)nc(C)c1CC [Compound of formula 9] | <1 log | <1 log | <1 log
CCCCCCCCCNc1cc(C)nc(-c2ccccn2)n1 [Compound of formula 22] | <1 log | <1 log | 1–2 log
CCCCCCCCCNc1cc(C(C)C)nc(-c2ccccn2)n1 [Compound of formula 46] | <1 log | <1 log | ≦1 log
